From ChEMBL document CHEMBL5316369, “From the Spectroscopic Reassessment of Authentic Alkaloid Samples to the Molecular Networking-Guided Discovery of Criophylline-Related Analogues from Callichilia inaequalis” (J Nat Prod, 2023)
pIC50: −log10 of the molar value.

system: Plasmodium falciparum; test: Antiparasitic activity against chloroquine-resistant Plasmodium falciparum FcB1 assessed as inhibition of parasite growth incubated for 24 hrs by liquid scintillation spectrometer analysis; type: functional, organism-based; details: FcB1, 24 h

SMILES | pIC50
CC[C@@]12CC[C@@]34Nc5ccc([C@@H]6[C@H]7O[C@H]7[C@]7(CC)CC(C(=O)OC)=C8Nc9ccccc9[C@@]89CCN6[C@@H]79)cc5[C@@H]3CCN(C[C@H](O)[C@H]1O)[C@@H]24 | 5.54
CC[C@@]12CC[C@@]34Nc5ccc([C@@H]6[C@H]7O[C@H]7[C@]7(CC)CC(C(=O)OC)=C8Nc9ccccc9[C@@]89CCN6[C@@H]79)cc5[C@@H]3CCN(C[C@H]3O[C@H]31)[C@@H]24 | 4.26
CC[C@@]12CC[C@@]34Nc5ccc([C@@H]6[C@H]7O[C@H]7[C@]7(CC)CC(C(=O)OC)=C8Nc9ccccc9[C@@]89CCN6[C@@H]79)cc5[C@@H]3CCN(C[C@H](OS(=O)(=O)O)[C@H]1O)[C@@H]24 | 4.84
